Measured values from patent publication US8791266B2, “Thyroid hormone β receptor agonist” (Mitsubishi Tanabe Pharma Corporation, priority 2009, dated 2014).

Legend:
[1] = biological target: T1, Human Thyroid Hormone Receptor β1 (TRβ1) (Homo sapiens, UniProt P10828); experiment: Transcription activation test of human thyroid hormone receptor β1 (luciferase reporter in 293T cells); type: cell-based; details: EC50 of transcription activation on TRβ1, 293T cells, luciferase activity after 24 hr; read-out: TRβ
T1 construct: expressed in transfected cells; host or cells: 293T cells
T1 sequence (P10828 1-461): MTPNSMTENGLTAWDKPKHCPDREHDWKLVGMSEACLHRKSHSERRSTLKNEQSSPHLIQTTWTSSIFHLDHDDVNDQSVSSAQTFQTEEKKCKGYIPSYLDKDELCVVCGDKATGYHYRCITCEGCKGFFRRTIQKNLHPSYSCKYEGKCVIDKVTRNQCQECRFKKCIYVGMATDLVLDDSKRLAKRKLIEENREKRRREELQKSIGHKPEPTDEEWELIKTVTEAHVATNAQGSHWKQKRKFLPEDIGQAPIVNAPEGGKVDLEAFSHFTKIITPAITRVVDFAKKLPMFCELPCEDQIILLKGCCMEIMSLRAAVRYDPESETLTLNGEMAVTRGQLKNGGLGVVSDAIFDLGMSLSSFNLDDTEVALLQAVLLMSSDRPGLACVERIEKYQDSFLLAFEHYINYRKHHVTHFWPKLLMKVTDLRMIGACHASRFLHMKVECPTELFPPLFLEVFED
From the text: (§1) Transcription Activation Test of Human Thyroid Hormone Receptors α1 (TRα1) and β1 (TRβ1)
(§2) pcDNA3.1 vector (manufactured by Invitrogen) that expresses TRα1 or β1 cloned from human liver-derived cells, and firefly luciferase expression vector pDR4-LuC (manufactured by Stratagene) having a thyroid hormone response sequence to be a reporter were transfected into 293T cells cultured in Dulbecco's modified Eagle medium (DMEM) containing 10% of activated carbon/dextran-treated fetal bovine serum (FBS) by using Lipofectamine2000 (manufactured by Invitrogen). After 16 hr, the cells were plated again in a 96 well plate, and the medium was exchanged with DMEM containing 0.1% activated carbon/dextran-treated FBS. After 3 more hr, a compound diluted with dimethyl sulfoxide solution was added, and the luciferase activity after 24 hr was measured.
(§3) As a positive control, 3,3′,5-triiodo-L-thyronine (T3), which is a biological ligand, was used. The transcription activation action of the compound on TRα1 and TRβ1 was shown by each EC50 value and the maximum luciferase activity value relative to the maximum luciferase activity value of T3 as 100.

[2] = biological target: T2, Human Thyroid Hormone Receptor α1 (TRα1) (Homo sapiens, UniProt P10827); experiment: Transcription activation test of human thyroid hormone receptor α1 (luciferase reporter in 293T cells); type: cell-based; details: ratio TRα/TRβ of the transcription activation EC50 values
T2 construct: expressed in transfected cells; host or cells: 293T cells
T2 sequence (P10827 1-410 isoform P10827-2): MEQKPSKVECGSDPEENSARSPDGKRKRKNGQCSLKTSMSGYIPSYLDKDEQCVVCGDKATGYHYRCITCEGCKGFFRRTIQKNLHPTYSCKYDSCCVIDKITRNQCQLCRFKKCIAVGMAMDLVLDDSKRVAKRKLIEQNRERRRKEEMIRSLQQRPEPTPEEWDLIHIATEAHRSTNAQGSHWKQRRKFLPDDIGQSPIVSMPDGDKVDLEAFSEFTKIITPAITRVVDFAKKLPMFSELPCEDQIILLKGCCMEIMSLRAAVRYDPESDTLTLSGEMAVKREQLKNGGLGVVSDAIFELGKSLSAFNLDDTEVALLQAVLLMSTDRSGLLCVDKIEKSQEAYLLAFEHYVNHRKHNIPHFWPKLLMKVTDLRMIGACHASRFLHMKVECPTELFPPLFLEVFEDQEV
From the text: as §1, §2, §3

Structure (SMILES)	EC50 [1]	selectivity (TRα/TRβ) [2]
Cc1cc(OCC(=O)O)cc(C)c1Cc1ccc(O)c(C(C)C)n1 [Example 1, {4-[(5-hydroxy-6-isopropylpyridin-2-yl)methyl]-3,5-dimethylphenoxy}acetic acid]	3 nM	B (2<(TRα/TRβ)<5)
Cc1cc(OCC(=O)O)cc(C)c1Cc1ccc(O)c(-c2ccc3ccccc3c2)n1 [Example 3, (4-{[5-hydroxy-6-(2-naphthyl)pyridin-2-yl]methyl}-3,5-dimethylphenoxy)acetic acid]	20 nM	A (5<(TRα/TRβ))
Cc1cc(OCC(=O)O)c(C)c(C)c1Cc1ccc(O)c(C(C)C)n1 [Example 4, {4-[(5-hydroxy-6-isopropylpyridin-2-yl)methyl]-2,3,5-trimethylphenoxy}acetic acid]	0.5 nM	B (2<(TRα/TRβ)<5)
Cc1cc(OCC(=O)O)c(C)c(C)c1Cc1ccc(O)c(C2CCCO2)n1 (stereo not drawn) [Example 6, (4-{[5-hydroxy-6-(tetrahydrofuran-2-yl)pyridin-2-yl]methyl}-2,3,5-trimethylphenoxy)acetic acid]	50 nM	B (2<(TRα/TRβ)<5)
Cc1cc(OCC(=O)O)c(C)c(C)c1Oc1ccc(O)c(C(C)C)n1 [Example 9, {4-[(5-hydroxy-6-isopropylpyridin-2-yl)oxy]-2,3,5-trimethylphenoxy}acetic acid]	7 nM	C (2>(TRα/TRβ))
Cc1cc(OCC(=O)O)c(F)c(C)c1Cc1ccc(O)c(C(C)C)n1 [Example 11, {2-fluoro-4-[(5-hydroxy-6-isopropylpyridin-2-yl)methyl]-3,5-dimethylphenoxy}acetic acid]	1 nM	B (2<(TRα/TRβ)<5)
Cc1cc(OC(C)(C)C(=O)O)cc(C)c1Cc1ccc(O)c(C2CCCCC2)n1 [Example 16, 2-{4-[(6-cyclohexyl-5-hydroxypyridin-2-yl)methyl]-3,5-dimethylphenoxy}-2-methylpropanoic acid]	20 nM	B (2<(TRα/TRβ)<5)
Cc1cc(OC2(C(=O)O)CC2)cc(C)c1Cc1ccc(O)c(C2CCCCC2)n1 [Example 18, 1-{4-[(6-cyclohexyl-5-hydroxypyridin-2-yl)methyl]-3,5-dimethylphenoxy}cyclopropanecarboxylic acid]	2000 nM	C (2>(TRα/TRβ))
Cc1cc(NC(=O)C(=O)O)cc(C)c1Cc1ccc(O)c(C2CCCCC2)n1 [Example 19, ({4-[(6-cyclohexyl-5-hydroxypyridin-2-yl)methyl]-3,5-dimethylphenyl}amino)(oxo)acetic acid]	5 nM	B (2<(TRα/TRβ)<5)
Cc1cc(NC(=O)CC(=O)O)cc(C)c1Cc1ccc(O)c(C(C)C)n1 [Example 21, 3-({4-[(5-hydroxy-6-isopropylpyridin-2-yl)methyl]-3,5-dimethylphenyl}amino)-3-oxopropanoic acid]	30 nM	B (2<(TRα/TRβ)<5)
Cc1cc(NC(=O)CC(=O)O)cc(C)c1Cc1ccc(O)c(-c2ccccc2)n1 [Example 22, 3-({4-[(5-hydroxy-6-phenylpyridin-2-yl)methyl]-3,5-dimethylphenyl}amino)-3-oxopropanoic acid]	200 nM	A (5<(TRα/TRβ))
Cc1cc(NC(=O)CC(=O)O)cc(C)c1Cc1ccc(O)c(C2CCCCC2)n1 [Example 23, 3-({4-[(6-cyclohexyl-5-hydroxypyridin-2-yl)methyl]-3,5-dimethylphenyl}amino)-3-oxopropanoic acid]	10 nM	A (5<(TRα/TRβ))
Cc1cc(OCc2noc(=O)[nH]2)cc(C)c1Cc1ccc(O)c(C(C)C)n1 [Example 27, 3-({4-[(5-hydroxy-6-isopropylpyridin-2-yl)methyl]-3,5-dimethylphenoxy}methyl)-1,2,4-oxadiazol-5(4H)-one]	0.3 nM	C (2>(TRα/TRβ))

Now from value to compound:

EC50 [1]	selectivity (TRα/TRβ) [2]	Structure (SMILES)
2 nM	B (2<(TRα/TRβ)<5)	Cc1cc(OCC(=O)O)cc(C)c1Cc1ccc(O)c(C2CCCCC2)n1 [Example 2, {4-[(6-cyclohexyl-5-hydroxypyridin-2-yl)methyl]-3,5-dimethylphenoxy}acetic acid]
0.5 nM	A (5<(TRα/TRβ))	Cc1cc(OCC(=O)O)c(C)c(C)c1Cc1ccc(O)c(C2CCCC2)n1 [Example 5, {4-[(6-cyclopentyl-5-hydroxypyridin-2-yl)methyl]-2,3,5-trimethylphenoxy}acetic acid]
1 nM	A (5<(TRα/TRβ))	Cc1cc(OCC(=O)O)c(C)c(C)c1Cc1ccc(O)c(C2CCCCC2)n1 [Example 7, {4-[(6-cyclohexyl-5-hydroxypyridin-2-yl)methyl]-2,3,5-trimethylphenoxy}acetic acid]
50 nM	A (5<(TRα/TRβ))	Cc1cc(OCC(=O)O)c(C)c(C)c1Cc1ccc(O)c(C2CCCCO2)n1 (stereo not drawn) [Example 8, (4-{[5-hydroxy-6-(tetrahydro-2H-pyran-2-yl)pyridin-2-yl]methyl}-2,3,5-trimethylphenoxy)acetic acid]
30 nM	B (2<(TRα/TRβ)<5)	Cc1cc(OCC(=O)O)c(C)c(C)c1Oc1ccc(O)c(C2CCCCC2)n1 [Example 10, {4-[(6-cyclohexyl-5-hydroxypyridin-2-yl)oxy]-2,3,5-trimethylphenoxy}acetic acid]
0.7 nM	B (2<(TRα/TRβ)<5)	Cc1cc(OCC(=O)O)c(F)c(C)c1Cc1ccc(O)c(C2CCCCC2)n1 [Example 12, {4-[(6-cyclohexyl-5-hydroxypyridin-2-yl)methyl]-2-fluoro-3,5-dimethylphenoxy}acetic acid]
0.3 nM	A (5<(TRα/TRβ))	Cc1cc(OCC(=O)O)c(Br)c(C)c1Cc1ccc(O)c(C2CCCCC2)n1 [Example 13, {2-bromo-4-[(6-cyclohexyl-5-hydroxypyridin-2-yl)methyl]-3,5-dimethylphenoxy}acetic acid]
10 nM	B (2<(TRα/TRβ)<5)	Cc1cc(OC(C)C(=O)O)cc(C)c1Cc1ccc(O)c(C2CCCCC2)n1 (stereo not drawn) [Example 14, 2-{4-[(6-cyclohexyl-5-hydroxypyridin-2-yl)methyl]-3,5-dimethylphenoxy}propanoic acid]
9 nM	B (2<(TRα/TRβ)<5)	Cc1cc(OC(C)C(=O)O)c(C)c(C)c1Cc1ccc(O)c(C2CCCCC2)n1 (stereo not drawn) [Example 15, 2-{4-[(6-cyclohexyl-5-hydroxypyridin-2-yl)methyl]-2,3,5-trimethylphenoxy}propanoic acid]
20 nM	B (2<(TRα/TRβ)<5)	Cc1cc(OC(C)(C)C(=O)O)c(C)c(C)c1Cc1ccc(O)c(C2CCCCC2)n1 [Example 17, 2-{4-[(6-cyclohexyl-5-hydroxypyridin-2-yl)methyl]-2,3,5-trimethylphenoxy}-2-methylpropanoic acid]
4 nM	C (2>(TRα/TRβ))	Cc1cc(NC(=O)C(=O)O)c(C)c(C)c1Cc1ccc(O)c(C2CCCCC2)n1 [Example 20, ({4-[(6-cyclohexyl-5-hydroxypyridin-2-yl)methyl]-2,3,5-trimethylphenyl}amino)(oxo)acetic acid]
30 nM	B (2<(TRα/TRβ)<5)	Cc1cc(NC(=O)CC(=O)O)c(C)c(C)c1Cc1ccc(O)c(C2CCCCC2)n1 [Example 24, 3-({4-[(6-cyclohexyl-5-hydroxypyridin-2-yl)methyl]-2,3,5-trimethylphenyl}amino)-3-oxopropanoic acid]
1 nM	C (2>(TRα/TRβ))	Cc1cc(/C=C/C(=O)O)c(C)c(C)c1Cc1ccc(O)c(C2CCCCC2)n1 [Example 25, (2E)-3-{4-[(6-cyclohexyl-5-hydroxypyridin-2-yl)methyl]-2,3,5-trimethylphenyl}acrylic acid]
6 nM	C (2>(TRα/TRβ))	Cc1cc(CCC(=O)O)c(C)c(C)c1Cc1ccc(O)c(C2CCCCC2)n1 [Example 26, 3-{4-[(6-cyclohexyl-5-hydroxypyridin-2-yl)methyl]-2,3,5-trimethylphenyl}propanoic acid]
